Reference: patent EP0244062A2, “Use of aryl ethanol amine derivatives in the treatment of atherosclerosis” (BEECHAM GROUP PLC, priority 1986, dated 1987)

Experiments:
[1] = tested on: Goldthioglucose-induced obese mice; test: Serum lipids in goldthioglucose-induced obese mice (Example 2); assay type: in vivo; settings: goldthioglucose-induced obese female CFLP mice, 20 mg/kg p.o. once daily for 28 days, mean of 4 ± S.E.
Procedure: Compound Pl provided the following results with Goldthioglucose-induced obese mice: . Female CFLP mice were given goldthioglucose (0.85 mg/g body wt., i.p.) and after 17 weeks the obese mice (mean wt. 57g) were selected and randomized into two groups of 4. The compound (20 mg/kg, p.o.) or water was given once daily for 28 days and the mice were killed the day after the last dose. Results are means of 4 values ± S.E.

normal mice = test: Serum lipids in normal mice dosed daily for 28 days (Example 1); assay type: in vivo; settings: normal female CFLP mice, mean of 8 ± S.E.; for Serum triglyceride: untreated 40.0±3.2, P < 0.001; for Serum cholesterol: untreated 67.6±2.4
Procedure: Compound P1 provided the following results with normal mice: Normal female CFLP mice were dosed daily at 11.00h for 28 days. One group was also dosed at 17.00h daily. 0n the day after dosing terminated they were killed at 14.00h. Results are means of 8 values ± S.E.

[2] = tested on: High fat diet-induced obese mice; test: Serum lipids in high fat diet-induced obese mice (Example 3); assay type: in vivo; settings: high fat diet-induced obese female CFLP mice, 20 mg/kg p.o. once daily for 28 days, mean ± S.E. (n=12)
Procedure: Compound Pl provided the following results with High fat diet-induced obese mice: Female CFLP mice were fed on a high protein, high fat diet. After 13 weeks the obese mice (mean wt. 49g) were selected and randomized into groups of 12. The compound (20 mg/kg, p.o.) or water was given once daily for 28 days and the mice were killed the day after the last dose. Results are means ± S.E, with numbers of determinations in parentheses.

Zucker fa/fa male rats = test: Plasma lipids in Zucker fa/fa rats dosed once daily for 39 days (Example 7); assay type: in vivo; settings: 7.8µmol/kg once daily for 39 days, mean of 8 ± S.E.M.
Procedure: Zucker fa/fa male rats of about 550g were dosed once daily with either water or Compound P3 (7.8µmol/kg) for 39 days. Results are means of 8 values ± S.E.M.

Obese subjects [3] = test: Clinical first study: obese subjects on a low energy liquid formula diet, six weeks (Example 6); assay type: in vivo, human; settings: 50 mg pfb, qds for six weeks, fasted
Procedure: Clinical studies using compound P3: First study Obese subjects (at least 20% above ideal weight) were given a low energy liquid formula diet and treated with the compound (50 mg pfb, qds) or placebo for six weeks. Serum triglyceride and cholesterol were measured in the fasted state just prior to the first dose and on the morning after the last dose of compound or placebo. Results are means ± S.E. with the number of subjects in parenthesis.

Obese subjects [4] = test: Clinical second study: crossover in obese subjects on a low energy high fibre diet, 2 x six weeks (Example 6); assay type: in vivo, human; settings: 50 mg pfb qds first week, then 100 mg qds, fasted
Procedure: Clinical studies using compound P3: Second study Obese subjects (at least 20X above ideal weight) were given a low energy high fibre diet and treated with the compound or placebo for six weeks after which they were given the alternative treatment for a further six weeks. For the first week of treatment (weeks 1 or 7) the dose level was 50 mg pfb, qds and after this it was 100 mg qds. Serum lipids were measured in the fasted state just prior to the first dose and after each six week period of dosing. Results are means ± S.E. with the number of subjects in parentheses.

Male rats = test: Serum lipids in rats given the compound in the diet for 7 days (Example 5); assay type: in vivo; settings: 0.1 g of the compound per kg of diet for 7 days, mean of 8 ± S.E.
Source text: Compound P3 provided the following results with rats: Male rats were fed on a normal diet or on a diet that contained O.lg of the compound per kg of diet for 7 days. Results are means of 8 values ± S.E.

[5] = tested on: hypercholesterolaemic mice; test: Cholesterol reduction in hypercholesterolaemic mice on a high cholesterol-cholic acid diet (Example 4); assay type: in vivo; settings: oral; for % Reduction LDL + VLDL cholesterol: heparin precipitation
Procedure: Compound P2 provided the following results with hypercholesterolaemic mice: Mice were made hypercholesterolaemic by being fed on a high cholesterol-cholic acid diet for seven days and were dosed orally on the sixth and seventh days. Low density and very low density lipoprotein (LDL and VLDL) cholesterol were measured together by heparin precipitation.

[6] = 2.5 mg/kg body wt. p.o. daily for 28 days
[7] = 2.5 mg/kg body wt. p.o. twice daily for 28 days
[8] = 5 mg/kg body wt. p.o. daily for 28 days
[9] = 10 mg/kg body wt. p.o. daily for 28 days
[10] = 15 mg/kg body wt. p.o. daily for 28 days
[11] = total dose on days 6 and 7 5 mg/kg
[12] = total dose on days 6 and 7 10 mg/kg
[13] = total dose on days 6 and 7 25 mg/kg

COC(=O)c1ccc(CC(C)NCC(O)c2ccc(O)c(CO)c2)cc1 (centres unmarked) [Compound P1, N-(2-(4-carbomethoxghenyl)-1-metnylethyl) -2-hydroxy-2-(4-hydroxy-3-hydroxymethylphenyl) ethanamine]
Serum triglyceride ([1]; control 35±4, P < 0.05): 22±3 mg/100 ml | Serum cholesterol ([1]; control 82±4): 81±6 mg/100 ml | Serum triglyceride (normal mice; [6]): 21.5±1.1 mg/100 ml | Serum cholesterol (normal mice; [6]): 67.0±3.2 mg/100 ml | Serum triglyceride (normal mice; [7]): 16.4±0.8 mg/100 ml | Serum cholesterol (normal mice; [7]): 74.4±1.7 mg/100 ml | Serum triglyceride (normal mice; [8]): 16.3±1.1 mg/100 ml | Serum cholesterol (normal mice; [8]): 69.1±2.4 mg/100 ml | Serum triglyceride (normal mice; [9]): 14.5±0.7 mg/100 ml | Serum cholesterol (normal mice; [9]): 68.4±3.3 mg/100 ml | Serum triglyceride (normal mice; [10]): 14.3±0.8 mg/100 ml | Serum cholesterol (normal mice; [10]): 71.0±2.4 mg/100 ml | Serum triglyceride ([2]; control 73±8, P < 0.01): 34±2**(12) mg/100ml | Serum cholesterol ([2]; control 118±3, P < 0.05): 103±5*(12) mg/100ml

COC(=O)c1ccc(C[C@@H](C)NC[C@H](O)c2ccccc2)cc1 (racemic) [Compound P3, N-[2-(4-carbomethoxyphenyl)-1-methylethyl]-2-hydroxy-2-phenylethanamine hemifumarate]
Plasma Cholesterol (Zucker fa/fa male rats; water 3.44 ± 0.10, p < 0.05): 3.07 ± 0.14 mM | Plasma Triglyceride (Zucker fa/fa male rats; water 9.3 ± 0.7, p < 0.02): 5.9 ± 0.9 mM | Serum triglyceride % Fall (Obese subjects [3]; initial 2.05±0.16 mM (4), subjects with initial levels below 1 mM excluded, placebo 21±7): 52±6% | Serum cholesterol % Fall (Obese subjects [3]; initial 5.81±0.44 mM (5), placebo 19±5): 21±7% | HDL cholesterol % change (Obese subjects [4]; 1st 6 weeks, initial 1.50±0.07 mM (15), placebo -10±3): 0±4% | Serum triglyceride % change (Obese subjects [4]; 1st 6 weeks, initial 1.57±0.18 mM (15), placebo -12±5): -25±5% | Serum cholesterol % change (Obese subjects [4]; 1st 6 weeks, initial 6.10±0.24 mM (15), placebo -13±3): -9±3% | Serum triglyceride % change (Obese subjects [4]; 2nd 6 weeks (after crossover), initial 1.21±0.18 mM (15), placebo +33±10): -4±8% | HDL cholesterol % change (Obese subjects [4]; 2nd 6 weeks (after crossover), initial 1.30±0.04 mM (15), placebo -5±4): +14±3% | Serum cholesterol % change (Obese subjects [4]; 2nd 6 weeks (after crossover), initial 5.30±0.29 mM (15), placebo +4±3): +5±3% | Serum cholesterol (Male rats; control 52±2): 54±3 mg/100ml | Serum triglyceride (Male rats; control 112±10, P < 0.05): 70±4 mg/100ml

COC(=O)COc1ccc(C[C@@H](C)NC[C@H](O)c2cccc(Cl)c2)cc1 (racemic) [Compound P2, N-(2-(4-carbomethoxymethoxyphenyl)-1-methylethyl)--2-hydroxy-2-(3-chlorophenyl)ethanamine nydrobromide]
% Reduction Total cholesterol [5, 11]: 24% | % Reduction LDL + VLDL cholesterol [5, 11]: 29% | % Reduction Total cholesterol [5, 12]: 22% | % Reduction LDL + VLDL cholesterol [5, 12]: 28% | % Reduction Total cholesterol [5, 13]: 34% | % Reduction LDL + VLDL cholesterol [5, 13]: 55%
